Assay results reported in ChEMBL document CHEMBL1201862, “PubChem BioAssay data set” (2004).
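In this assay, cells in 96-well plates receive the compound at five concentrations for 48 hours. Endpoints are linearly interpolated between the surrounding concentrations. Here, GI50 denotes the concentration required for 50% inhibition of growth.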 Active and inactive are the calls of the source. Cut-off read from the data, not from the text of the source: active = GI50 up to about 1.1 µM and inactive = higher.

How the values were obtained:
Test in all cases: NCI-60 cell line screen, 48 h
HCT-15 = system: HCT-15
CAKI-1 = system: CAKI-1
HOP-92 = system: HOP-92
SW-620 = system: SW-620
COLO 205 = system: COLO 205
MCF7 = system: MCF7
M14 = system: M14
SK-MEL-28 = system: SK-MEL-28
PC-3 = system: PC-3
OVCAR-5 = system: OVCAR-5
EKVX = system: EKVX
NCI-H226 = system: NCI-H226
RXF 393 = system: RXF 393
Hs-578T = system: Hs-578T
HL-60 = system: HL-60
K562 = system: K562
MDA-MB-231 = system: MDA-MB-231
HCC 2998 = system: HCC 2998
SF-539 = system: SF-539
SR = system: SR

Row | Compound | GI50 (HCT-15) | GI50 (CAKI-1) | GI50 (HOP-92) | GI50 (SW-620) | GI50 (COLO 205) | GI50 (MCF7) | GI50 (M14) | GI50 (SK-MEL-28) | GI50 (PC-3) | GI50 (OVCAR-5) | GI50 (EKVX) | GI50 (NCI-H226) | GI50 (RXF 393) | GI50 (Hs-578T) | GI50 (HL-60) | GI50 (K562) | GI50 (MDA-MB-231) | GI50 (HCC 2998) | GI50 (SF-539) | GI50 (SR)
1 | NC(=O)c1ccc(C(=O)Nc2ccc([As](=O)(O)O)cc2)cc1 | > 100 µM | > 100 µM (inactive) | > 100 µM (inactive) | > 100 µM (inactive) | > 100 µM (inactive) | > 100 µM (inactive) | > 100 µM (inactive) | > 100 µM (inactive) | > 100 µM (inactive) | > 100 µM (inactive) | > 100 µM (inactive) | > 100 µM (inactive) | > 100 µM (inactive) | > 100 µM (inactive) | > 100 µM (inactive) | > 100 µM (inactive) | > 100 µM (inactive) |  |  | 
2 | Cc1c2ccnc(C(N)=O)c2c(C)c2c1[nH]c1ccccc12 | 4.1 µM | 3.83 µM (inactive) |  | 3.19 µM (inactive) | 5.07 µM (inactive) | 2.39 µM (inactive) | 6.58 µM (inactive) | 7.78 µM (inactive) |  | 18.8 µM (inactive) | 10.6 µM (inactive) | 6.65 µM (inactive) | 4.19 µM (inactive) |  | 13.4 µM (inactive) | 11 µM (inactive) |  | 14.1 µM (inactive) | 6.76 µM (inactive) | 
3 | O=C1CCCc2c1c1c(n2Cc2ccccc2)-c2ccccc2C1=O | 15 µM | 21.1 µM (inactive) | 26.9 µM (inactive) | 32.3 µM (inactive) | 17.9 µM (inactive) | 29 µM (inactive) | 21.3 µM (inactive) | 33.3 µM (inactive) | 27.4 µM (inactive) | 32.1 µM (inactive) | 27.7 µM (inactive) | 21.6 µM (inactive) | 29.9 µM (inactive) | 28.7 µM (inactive) | 23.9 µM (inactive) | 13.9 µM (inactive) | 15.4 µM (inactive) | 15.2 µM (inactive) | 21.1 µM (inactive) | 
4 | Cc1ccc2c(c1)-c1nc(N)c(C#N)c(-c3ccc(Cl)cc3)c1CCS2(=O)=O | 43.2 µM | 38.5 µM (inactive) | 36.1 µM (inactive) | 46 µM (inactive) | 24.7 µM (inactive) |  |  | 48.9 µM (inactive) | 26.8 µM (inactive) |  |  | 28.4 µM (inactive) |  | 43 µM (inactive) | 17.7 µM (inactive) |  | 27.1 µM (inactive) | 64.3 µM (inactive) |  | 24.5 µM (inactive)
5 | C#C[C@]1(O)CC[C@H]2[C@@H]3CCC4=C/C(=N/CCOC(=O)c5cccc6cc7ccccc7nc56)CC[C@@H]4[C@H]3CC[C@@]21C | 17.5 µM | 42.4 µM (inactive) | 20.7 µM (inactive) | 57.3 µM (inactive) | 90.6 µM (inactive) | 17.3 µM (inactive) | 23 µM (inactive) | 75.2 µM (inactive) | 11.7 µM (inactive) | 40.5 µM (inactive) | 34.8 µM (inactive) | > 100 µM (inactive) | 4.06 µM (inactive) | 14.3 µM (inactive) | > 100 µM (inactive) | > 100 µM (inactive) | 16.4 µM (inactive) |  |  | 
6 | N#Cc1c(C#N)c(-c2ccco2)n(-c2ccccc2)c1N | > 100 µM | > 100 µM (inactive) | 49.8 µM (inactive) | > 100 µM (inactive) | > 100 µM (inactive) | 5.94 µM (inactive) | > 100 µM (inactive) |  | > 100 µM (inactive) | > 100 µM (inactive) | 45 µM (inactive) | 29.5 µM (inactive) | > 100 µM (inactive) |  | > 100 µM (inactive) | > 100 µM (inactive) | 31.7 µM (inactive) | > 100 µM (inactive) | 38.5 µM (inactive) | 98.2 µM (inactive)
7 | NC1=CN(Cc2ccccc2)C2=N/C(=C\c3ccco3)C(=O)N12 | > 100 µM | > 100 µM (inactive) | > 100 µM (inactive) | > 100 µM (inactive) | > 100 µM (inactive) | > 100 µM (inactive) | > 100 µM (inactive) | > 100 µM (inactive) | > 100 µM (inactive) | > 100 µM (inactive) | > 100 µM (inactive) | > 100 µM (inactive) | > 100 µM (inactive) | > 100 µM (inactive) | > 100 µM (inactive) | > 100 µM (inactive) | > 100 µM (inactive) | > 100 µM (inactive) | > 100 µM (inactive) | 
8 | CCOC(=O)c1cc2c(=Cc3ccc(N(C)C)cc3)c3ccccc3n2[n+]1C | 10.4 µM | 1.64 µM (inactive) | 2.88 µM (inactive) | 0.637 µM (active) | 0.309 µM (active) | 2.34 µM (inactive) | 3.15 µM (inactive) | 1.53 µM (inactive) | 0.574 µM (active) | 5.98 µM (inactive) | 4.97 µM (inactive) | 8.24 µM (inactive) | 1.63 µM (inactive) |  | 0.372 µM (active) | 0.787 µM (active) | 3.86 µM (inactive) | 1.69 µM (inactive) | 0.577 µM (active) | 
9 | CC(=O)OCc1cc2ccccc2nc1C(Br)(Br)Br | 16.9 µM | 15.7 µM (inactive) | 11.7 µM (inactive) | 18.7 µM (inactive) | 19.6 µM (inactive) | 14.7 µM (inactive) | 18.8 µM (inactive) | 17.9 µM (inactive) |  | 15.4 µM (inactive) | 19.1 µM (inactive) | 21.5 µM (inactive) | 15.4 µM (inactive) | 27 µM (inactive) | 14.9 µM (inactive) | 18 µM (inactive) | 19.3 µM (inactive) | 15.4 µM (inactive) | 21.1 µM (inactive) | 1.46 µM (inactive)
10 | O=C(N/N=C(COc1ccccc1)\N=C\c1cccnc1)c1ccncc1 | > 100 µM | > 100 µM (inactive) |  | > 100 µM (inactive) | > 100 µM (inactive) | > 100 µM (inactive) | > 100 µM (inactive) | > 100 µM (inactive) | > 100 µM (inactive) | > 100 µM (inactive) | > 100 µM (inactive) | > 100 µM (inactive) | > 100 µM (inactive) | > 100 µM (inactive) | > 100 µM (inactive) | > 100 µM (inactive) | > 100 µM (inactive) | > 100 µM (inactive) | > 100 µM (inactive) | 
11 | COC(=O)c1sc(=S)sc1SCc1ccc(CSc2sc(=S)sc2C(=O)OC)cc1 | > 100 µM | > 100 µM (inactive) | > 100 µM (inactive) | > 100 µM (inactive) | > 100 µM (inactive) | > 100 µM (inactive) | > 100 µM (inactive) | > 100 µM (inactive) | > 100 µM (inactive) | > 100 µM (inactive) | > 100 µM (inactive) | > 100 µM (inactive) | > 100 µM (inactive) | > 100 µM (inactive) |  | > 100 µM (inactive) | > 100 µM (inactive) | > 100 µM (inactive) |  | 
12 | CC(C)(C)C1=C(Br)C(O)(C(C)(C)C)OP1(=O)c1ccccc1 (stereo unspecified) | > 100 µM | > 100 µM (inactive) | > 100 µM (inactive) | > 100 µM (inactive) | > 100 µM (inactive) | 0.805 µM (active) |  | > 100 µM (inactive) | > 100 µM (inactive) | > 100 µM (inactive) | > 100 µM (inactive) |  | > 100 µM (inactive) | > 100 µM (inactive) | > 100 µM (inactive) | > 100 µM (inactive) | > 100 µM (inactive) | > 100 µM (inactive) | > 100 µM (inactive) | 
13 | COC(=O)[C@@H]1COC(=O)N1 | > 100 µM | > 100 µM (inactive) | > 100 µM (inactive) | > 100 µM (inactive) | > 100 µM (inactive) | > 100 µM (inactive) | > 100 µM (inactive) | > 100 µM (inactive) | > 100 µM (inactive) | > 100 µM (inactive) | > 100 µM (inactive) | > 100 µM (inactive) | > 100 µM (inactive) | > 100 µM (inactive) | > 100 µM (inactive) | > 100 µM (inactive) | > 100 µM (inactive) | > 100 µM (inactive) | > 100 µM (inactive) | 
14 | C(=N\c1ccc(-c2nc3ccccc3s2)cc1)/c1ccco1 | 51.2 µM | 49.1 µM (inactive) | 39.5 µM (inactive) | > 100 µM (inactive) | 87.3 µM (inactive) |  | 93.5 µM (inactive) | > 100 µM (inactive) | 32.5 µM (inactive) | > 100 µM (inactive) | 37.2 µM (inactive) | 56.4 µM (inactive) | 55.7 µM (inactive) | > 100 µM (inactive) |  | 41.3 µM (inactive) |  | 43.5 µM (inactive) | > 100 µM (inactive) | 50.2 µM (inactive)
15 | CCCCOC(=O)NC(Nc1ccc(S(=O)(=O)Nc2ncccn2)cc1)(C(F)(F)F)C(F)(F)F | > 100 µM | > 100 µM (inactive) | > 100 µM (inactive) | > 100 µM (inactive) | > 100 µM (inactive) |  | > 100 µM (inactive) | > 100 µM (inactive) | > 100 µM (inactive) | > 100 µM (inactive) | > 100 µM (inactive) | > 100 µM (inactive) | > 100 µM (inactive) | > 100 µM (inactive) | 89.7 µM (inactive) | > 100 µM (inactive) | > 100 µM (inactive) | 33.5 µM (inactive) | > 100 µM (inactive) | 78.2 µM (inactive)
16 | CC1CNC(c2ccc(CN3CCC(CCCC4CCN(Cc5ccc(C6=NC(C)CN6)cc5)CC4)CC3)cc2)=N1 (stereo unspecified) | > 100 µM | > 100 µM (inactive) | 26 µM (inactive) | 30.5 µM (inactive) | 17.6 µM (inactive) | 19.8 µM (inactive) | 62.5 µM (inactive) | > 100 µM (inactive) | 36.8 µM (inactive) | 25.3 µM (inactive) | 32.2 µM (inactive) | 32.9 µM (inactive) | 27.4 µM (inactive) | > 100 µM (inactive) | > 100 µM (inactive) | 35 µM (inactive) | 21.2 µM (inactive) | 14.8 µM (inactive) | 29.6 µM (inactive) | 
